Experimental data reported in US4874776A, “Compound having mucus regulating and elastase-inhibitory activities, for the therapy of pulmonal emphysema and pulmonal fibrosis” (Yason S.r.l., priority 1988, dated 1989).

Assays:
[1] = system: hepatic intoxication induced by carbon tetrachloride; assay: Hepato-protecting activity, hepatic intoxication induced by carbon tetrachloride; type: in vivo, rat; conditions: male Wistar rats, 100 mg/kg i.p.; for GPT x ± es: 15 minutes before CCl4 0,15 ml/kg oral, 24 hours; for GPT % INHIBITION VS. CONTROLS: CCl4 0,15 ml/kg
Procedure: Hepato-protecting activity of YS 795 was evaluated in comparison with N-acetylcystein, by means of the test of hepatic intoxication induced by carbon tetrachloride, according to the method by Sanna et al. (Experientia, 32 (1), 91, 1976).
Male Wistar rats (268-346 g body weight) fasted for 18 hours, with water "ad libitum", were used.
YS 795 and N-acetylcystein were administered intraperitoneally at the dose of 100 mg/kg, whereas the control group received the only carrier.
15 minutes after the drug administration, the animals were treated orally with 0,15 ml/kg of carbon tetrachloride.
After 24 more hours, the animals were killed by bleeding after ether anesthesia.

[2] = system: secretion of respiratory tract; assay: Bronchosecretagogue activity, sodium fluoresceine test; type: in vivo, rat; conditions: male Wistar rats, 100 mg/kg; for SODIUM FLUORESCEINE: 10 animals
Procedure: Bronchosecretagogue activity was evaluated by means of sodium fluoresceine test, according to the procedure by Mawatari ("Experimental studies on the expectorant action of several drugs" Kagoshima Kaigaken Igaken Zasshi 27, 561, 1976), said test consisting in determining the sodium fluoresceine amount eliminated from respiratory tract: the higher the secretion, the higher the amount of sodium fluoresceine eliminated. Accordingly, any compound increasing the secretion of respiratory tract causes an increase in sodium fluoresceine elimination, which can easily be calculated.
Male Wistar rats (100-200 g body weight), fasted for 18 hours, with water "ad libitum", were administered with YS 795 at the dose of 100 mg/kg and, by comparison, with carboxymethyl cystein at equiponderal doses, by the oral route.
30 minutes after the treatment, sodium fluoresceine was injected subcutaneously and 30 minutes after the animals were killed by bleeding. The whole respiratory tree was then withdrawn and the percentage of sodium fluoresceine present was evaluated.

[3] = Acute toxicity (LD50, Litchfield and Wilcoxon) in the rat; conditions: in vivo, read-out: DL50 (the source's name)
Procedure: (§1) Acute toxicity of YS 795 was calculated in the rat and the mouse after both oral and intraperitoneal administrations.
(§2) LD50 was determined according to the method of Litchfield and Wilcoxon (J. Pharmacol. Exp. Therap. 96, 99-118, 1949).

[4] = Acute toxicity (LD50, Litchfield and Wilcoxon) in the mouse; conditions: in vivo, read-out: DL50 (the source's name)
Procedure: as §1, §2

[5] = molecular target: elastase; assay: Elastase-inhibitory activity; type: biochemical
Procedure: Inhibition of elastase activity by YS 795 was evaluated according to the method by D. A. Hall, S. El Ridi (Methods of connective tissue research, Ioyson-Bruvvers Ltd.; Oxford--1976) and by R. M. Senior et al. (Elastine and elastic Tissue, Plenum Press, pp. 249-254, New York--1977).

[6] = system: emphysema induced by porcine pancreatic elastase; assay: Emphysema induced by porcine pancreatic elastase in the hamster; type: in vivo
Procedure: Emphysema induced by porcine pancreatic elastase in the hamster.
Capability of YS 795 in preventing emphysema caused by instillation of elastase was studied according to the method by Stone P. J. et al. (Am. Rev. Respir. Dis.; 124/1; 1981) and by Yu et al. ("Elastin and elastic tissues"; Plenum Press; New York; 1977).
16 Hamsters weighing 100-120 g were divided in 4 groups of 4 animals each (Groups A, B, C and controls) and treated as follows:
Group A: in tratracheal instillation of 0,1 mg of porcine pancreatic elastase 1 hour after administration of 100 mg/kg of YS 795.
Group B: YS 795 was administered 1 hour after elastase instillation.
Group C: YS 795 was administered 4 hours after elastase instillation.
Controls: physiological saline was administered 1 hour after elastase instillation.
At set times (72 hours and 12 days), the animals were killed after intraperitoneal anesthesia with pentobarbital. Lungs were intubated through trachea and fixed.
Morphological and morphometrical analysis of the pulmonal sections were then carried out under a microscope.

[7] = molecular target: collagenase; assay: Collagenase inhibitory activity; type: biochemical; conditions: read-out: IC50 collagenase inhibition
Procedure: The inhibition of collagenase by means of YS 795 was evaluated according to the method by C. L. Hu, G. Crombie, C. Franzeblau (Analyt., Biochem. 88, 638, 1978).

[8] = Pharmacokinetics, plasma and tissue concentrations by gaschromatographic analysis; type: in vivo; conditions: rat
Procedure: Male CD-COBS rats weighing 200-220 g were used, treated with YS 795 and 4-thiazolidine-carboxylic acid by the oral or intraperitoneal route, in equimolecular amounts (YS 795=795=100 mg/kg; thiazolidine-carboxylic acid =65 mg/kg).
One hour after the treatment the animals were killed by beheading; blood was collected in heparinized test-tubes and centrifuged for 10 minutes at 3500 rpm to prepare plasma. The tissues (liver, lung, kidney and brain) were homogenized in 4 volumes of 0,05M phosphate buffer.
Tissular concentrations were studied by gaschromatographic analysis.

[9] = system: patients affected by chronic bronchitis; assay: Clinical study in patients affected by chronic bronchitis (tolerability and mucus regulating activity); type: in vivo, human; conditions: 3×300 mg capsules a day
Procedure: YS 795 in capsules was administered to hospitalized patients affected by chronic bronchitis, in order to test tolerability and mucus regulating activity.
10 patients, 5 males and 5 females, of 65-70 years age, smokers or ex-smokers, were treated with YS 795 administered at a dose of 3×300 mg capsules a day, in the morning, at noon and in the night, with full stomach, for a period of 4 weeks.
All drugs having mucolytic, bronchodynamic, steroidal and balsamic activities were excluded during the observation period, whereas the "routine" therapy of concomitant diseases, based on administration of diuretic, hypotensive, antidiabetic, vasodilating and antibiotic drugs, was continued.
Before and after the treatment, tests were carried out to evaluate possible side-effects of YS 795 on hemopoietic, hepatic and renal functions; heart rate and arterial pressure were further checked during the treatment.

[10] = Solubility of the obtained compound; type: physicochemical

CC(=O)N[C@@H](CS)C(=O)O [N--ACETYLCYSTEIN, N-acetylcystein, reference compound]
GPT x ± es [1]: 168,2 ± 8,68 U/L | GPT % INHIBITION VS. CONTROLS [1]: 52,9%

NC(CSCC(=O)O)C(=O)O (stereo not drawn) [S--CARBOXYMETHYLCYSTEIN, reference compound]
SODIUM FLUORESCEINE % Δ vs. controls [2]: 80,6% | SODIUM FLUORESCEINE [2]: 0,56 μg/ml

CCOC(=O)N1CSCC1C(=O)O (stereo not drawn) [YS 795, N-carbethoxy-4-thiazolidine-carboxylic acid]
LD50 ([3]; ip, female): 420 mg/kg | LD50 ([3]; ip, male): 415 mg/kg | LD50 ([3]; po, os, male): > 4000 mg/kg | LD50 ([4]; ip, female): 372 mg/kg | LD50 ([4]; ip, male): 380 mg/kg | LD50 ([4]; po, os, male): > 4000 mg/kg | IC50 [5]: 11 mM | Effect of the time of administration on the antiemphysema effect ([6]; administered 1 hour before vs. 1 or 4 hours after elastase instillation): more marked when YS 795 was administered before elastase instillation | Antagonism of pulmonal emphysema (morphological and morphometrical analysis of pulmonal sections) ([6]; hamster, 100 mg/kg, 0,1 mg elastase intratracheal, 72 hours and 12 days): can antagonize pulmonal emphysema induced by porcine pancreatic elastase | IC50 [7]: 15 mM | SODIUM FLUORESCEINE % Δ vs. controls [2]: 70,9% | SODIUM FLUORESCEINE [2]: 0,53 μg/ml | GPT x ± es [1]: 220 ± 84,47 U/L | GPT % INHIBITION VS. CONTROLS [1]: 38,4% | Metabolism [8]: subsequently metabolized to n-thiazolidine-carboxylic acid | Time till which the compound is still found as such [8]: 12 h | Time of plasmatic concentration peak ([8]; after the administration): between the first and the second hour | Drug amounts in liver and lungs in comparison with thiazolidine-carboxylic acid ([8]; equimolecular amounts (100 mg/kg vs. 65 mg/kg)): remarkanly higher | Tissue distribution (liver, lung, kidney, brain) ([8]; found as such and as thiazolidine-carboxylic derivative): present in all the examined tissues | Absorption ([8]; oral and intraperitoneal route, 100 mg/kg): well adsorbed by both oral and intraperitonel route | Fluidifying and mucus regulating activities ([9]; patients with chronic bronchitis, 4 weeks): good fluidifying and mucus regulating activities | Effects on arterial pressure and heart rate ([9]; patients, 4 weeks): no clinically significant effects | Tolerability at gastric level ([9]; patients, 4 weeks): well tolerated | Effect on hemopoietic, hepatic and renal functions (laboratory tests) ([9]; patients, before and after 4 weeks): does not affect hemopoietic, hepatic and renal functions | Solubility in common organic solvents ([10]; common organic solvents): soluble in common organic solvents | Solubility in water ([10]; water): unsoluble in water
